{
  "source": "patent US9999632B2",
  "about": "“Inhibition of pancreatic lipase” (RD Biomed Limited, priority 2009, dated 2018)",
  "origin": "cited, not measured here",
  "settings": "patients treated with Orlistat; cited from earlier work",
  "data": [
    {"smiles": "CCCCCCCCCCC[C@@H](C[C@@H]1OC(=O)[C@H]1CCCCCC)OC(=O)[C@H](CC(C)C)NC=O", "note": "[Orlistat, tetrahydrolipstatin]", "values": [
      {"measurement": "patients affected by adverse effects (steatorrhoea, bloating, oily spotting, faecal urgency, faecal incontinence)", "value": "up to 40 % of patients"}
    ]}
  ]
}
